# Assay results taken from patent publication US9708314B2, “Heterocyclic amide compound” (NISSAN CHEMICAL INDUSTRIES, LTD., priority 2013, dated 2017).
# Legend:
# Format in all cases: in vivo
# [1] = system: Echinochloa oryzacola Vasing.; assay: Test Example 2: herbicidal activity, application during weed generation in submerged conditions; details: Eighteenth Table; application herbicide amount 320 g/ha
# Outline: (§1)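 Seeds were sown together in alluvial soil kept under 4 cm of water and grown at 25 °C to 30 °C. Once plants reached the one- to two-leaf stage, the diluted emulsion was applied to the water surface at a predetermined g/ha amount, and effects were rated 0–5 after three weeks.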
# [2] = system: Monochoria vaginalis; assay: as above; details: Eighteenth Table; application herbicide amount 320 g/ha
# Outline: as §1
# [3] = system: Scirpus juncoides; assay: as above; details: Eighteenth Table; application herbicide amount 320 g/ha
# Outline: as §1
# [4] = system: Abutilon theophrasti; assay: Test Example 4: herbicidal effect by application to foliage (diluvial soil, plastic box); details: for M (Abutilon theophrasti) herbicidal effect grade: foliage application
# Outline: (§2)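 Greenhouse plants (25° C. to 30° C., 14 d, diluvial soil) receive a foliar spray of water-diluted emulsifiable formulation at defined g/ha. Grading after 3 weeks uses a six-step herbicidal-ratio scale, with 4 covering 70% to <90% and 1 covering 5% to <20%.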
# [5] = system: Alopecurus myosuroides; assay: as above; details: for J (Alopecurus myosuroides) herbicidal effect grade: foliage application
# Outline: as §2
# [6] = system: Amaranthus retroflexus; assay: as above; details: for N (Amaranthus retroflexus) herbicidal effect grade: foliage application
# Outline: as §2
# [7] = system: Apera spica-venti.; assay: as above; details: for L (Apera spica-venti.) herbicidal effect grade: foliage application
# Outline: as §2
# [8] = system: Avena fatua; assay: as above; details: for I (Avena fatua) herbicidal effect grade: foliage application
# Outline: as §2
# [9] = system: Chenopodium album; assay: as above; details: for O (Chenopodium album) herbicidal effect grade: foliage application
# Outline: as §2
# [10] = system: Digitaria ciliaris; assay: as above; details: for F (Digitaria ciliaris) herbicidal effect grade: foliage application
# Outline: as §2
# [11] = system: Echinochloa crus-galli var. crus-galli; assay: as above; details: for H (Echinochloa crus-galli var. crus-galli) herbicidal effect grade: foliage application
# Outline: as §2
# [12] = system: Lolium multiflorum Lam.; assay: as above; details: for K (Lolium multiflorum Lam.) herbicidal effect grade: foliage application
# Outline: as §2
# [13] = system: Setaria viridis; assay: as above; details: for G (Setaria viridis) herbicidal effect grade: foliage application
# Outline: as §2
# [14] = system: Stellaria media; assay: as above; details: for P (Stellaria media) herbicidal effect grade: foliage application
# Outline: as §2
# [15] = system: Veronica persica; assay: as above; details: for R (Veronica persica) herbicidal effect grade: foliage application
# Outline: as §2
# [16] = application to foliage, application herbicide amount 320 g/ha
# [17] = application to foliage, 320 g/ha
SMILES,A (Echinochloa oryzicola Vasing.) herbicidal ratio grade [1],C (Monochoria vaginalis) herbicidal ratio grade [2],B (Scirpus juncoides) herbicidal ratio grade [3],M (Abutilon theophrasti) herbicidal effect grade ([4]; 320 g/ha),J (Alopecurus myosuroides) herbicidal effect grade ([5]; 320 g/ha),N (Amaranthus retroflexus) herbicidal effect grade ([6]; 320 g/ha),L (Apera spica-venti.) herbicidal effect grade ([7]; 320 g/ha),I (Avena fatua) herbicidal effect grade ([8]; 320 g/ha),O (Chenopodium album) herbicidal effect grade ([9]; 320 g/ha),F (Digitaria ciliaris) herbicidal effect grade ([10]; 320 g/ha),H (Echinochloa crus-galli var. crus-galli) herbicidal effect grade ([11]; 320 g/ha),K (Lolium multiflorum Lam.) herbicidal effect grade ([12]; 320 g/ha),G (Setaria viridis) herbicidal effect grade ([13]; 320 g/ha),P (Stellaria media) herbicidal effect grade ([14]; 320 g/ha),R (Veronica persica) herbicidal effect grade ([15]; 320 g/ha),also measured
Cc1ccc(-c2nnc3c(C(=O)Nc4nnnn4C)ccc(C(F)(F)F)n23)cc1 [2-042],4 (Herbicidal ratio of 70% or more and less than 90%),4 (Herbicidal ratio of 70% or more and less than 90%),3 (Herbicidal ratio of 40% or more and less than 70%),5 (Herbicidal ratio of 90% or more (almost completely withered)),2 (Herbicidal ratio of 20% or more and less than 40%),5 (Herbicidal ratio of 90% or more (almost completely withered)),0 (Herbicidal ratio of 5% or less (almost no effect)),2 (Herbicidal ratio of 20% or more and less than 40%),5 (Herbicidal ratio of 90% or more (almost completely withered)),5 (Herbicidal ratio of 90% or more (almost completely withered)),5 (Herbicidal ratio of 90% or more (almost completely withered)),1 (Herbicidal ratio of 5% or more and less than 20%),5 (Herbicidal ratio of 90% or more (almost completely withered)),3 (Herbicidal ratio of 40% or more and less than 70%),5 (Herbicidal ratio of 90% or more (almost completely withered)),–
Cn1nnnc1NC(=O)c1ccc(C(F)(F)F)n2c([S+](C)[O-])nnc12 (stereo not drawn) [2-067],5 (Herbicidal ratio of 90% or more (almost completely withered)),5 (Herbicidal ratio of 90% or more (almost completely withered)),4 (Herbicidal ratio of 70% or more and less than 90%),5 (Herbicidal ratio of 90% or more (almost completely withered)),4 (Herbicidal ratio of 70% or more and less than 90%),5 (Herbicidal ratio of 90% or more (almost completely withered)),3 (Herbicidal ratio of 40% or more and less than 70%),5 (Herbicidal ratio of 90% or more (almost completely withered)),5 (Herbicidal ratio of 90% or more (almost completely withered)),5 (Herbicidal ratio of 90% or more (almost completely withered)),5 (Herbicidal ratio of 90% or more (almost completely withered)),4 (Herbicidal ratio of 70% or more and less than 90%),5 (Herbicidal ratio of 90% or more (almost completely withered)),5 (Herbicidal ratio of 90% or more (almost completely withered)),5 (Herbicidal ratio of 90% or more (almost completely withered)),–
Cc1nnc(NC(=O)c2ccc(C(F)(F)F)n3c(SCc4ccc(Cl)nc4)nnc23)o1 [1-156],0 (Herbicidal ratio of 5% or less (almost no effect)),2 (Herbicidal ratio of 20% or more and less than 40%),3 (Herbicidal ratio of 40% or more and less than 70%),–,–,–,–,–,–,–,–,–,–,–,–,"M: herbicidal effect on Abutilon theophrasti [4, 16]: 3 (Herbicidal ratio of 40% or more and less than 70%); J: herbicidal effect on Alopecurus myosuroides [5, 16]: 1 (Herbicidal ratio of 5% or more and less than 20%); N: herbicidal effect on Amaranthus retroflexus [6, 16]: 3 (Herbicidal ratio of 40% or more and less than 70%); L: herbicidal effect on Apera spica-venti. [7, 16]: 2 (Herbicidal ratio of 20% or more and less than 40%); I: herbicidal effect on Avena fatua [8, 16]: 1 (Herbicidal ratio of 5% or more and less than 20%); O: herbicidal effect on Chenopodium album [9, 16]: 5 (Herbicidal ratio of 90% or more (almost completely withered)); F: herbicidal effect on Digitaria ciliaris [10, 16]: 2 (Herbicidal ratio of 20% or more and less than 40%); H: herbicidal effect on Echinochloa crus-galli var. crus-galli [11, 16]: 4 (Herbicidal ratio of 70% or more and less than 90%); K: herbicidal effect on Lolium multiflorum Lam. [12, 16]: 1 (Herbicidal ratio of 5% or more and less than 20%); G: herbicidal effect on Setaria viridis [13, 16]: 1 (Herbicidal ratio of 5% or more and less than 20%); P: herbicidal effect on Stellaria media [14, 16]: 4 (Herbicidal ratio of 70% or more and less than 90%); R: herbicidal effect on Veronica persica [15, 16]: 3 (Herbicidal ratio of 40% or more and less than 70%)"
CCOC(=O)Cc1nnc2c(C(=O)Nc3nnnn3C)ccc(C(F)(F)F)n12 [2-040],4 (Herbicidal ratio of 70% or more and less than 90%),4 (Herbicidal ratio of 70% or more and less than 90%),3 (Herbicidal ratio of 40% or more and less than 70%),5 (Herbicidal ratio of 90% or more (almost completely withered)),1 (Herbicidal ratio of 5% or more and less than 20%),5 (Herbicidal ratio of 90% or more (almost completely withered)),3 (Herbicidal ratio of 40% or more and less than 70%),3 (Herbicidal ratio of 40% or more and less than 70%),5 (Herbicidal ratio of 90% or more (almost completely withered)),5 (Herbicidal ratio of 90% or more (almost completely withered)),5 (Herbicidal ratio of 90% or more (almost completely withered)),1 (Herbicidal ratio of 5% or more and less than 20%),3 (Herbicidal ratio of 40% or more and less than 70%),5 (Herbicidal ratio of 90% or more (almost completely withered)),5 (Herbicidal ratio of 90% or more (almost completely withered)),–
Cn1nnnc1NC(=O)c1ccc(C(F)(F)F)n2c(SCC3CCCO3)nnc12 (stereo not drawn) [2-085],4 (Herbicidal ratio of 70% or more and less than 90%),3 (Herbicidal ratio of 40% or more and less than 70%),4 (Herbicidal ratio of 70% or more and less than 90%),–,–,–,–,–,–,–,–,–,–,–,–,"herbicidal effect, M (Abutilon theophrasti) [4, 17]: 5 (Herbicidal ratio of 90% or more (almost completely withered)); herbicidal effect, J (Alopecurus myosuroides) [5, 17]: 3 (Herbicidal ratio of 40% or more and less than 70%); herbicidal effect, N (Amaranthus retroflexus) [6, 17]: 5 (Herbicidal ratio of 90% or more (almost completely withered)); herbicidal effect, L (Apera spica-venti.) [7, 17]: 4 (Herbicidal ratio of 70% or more and less than 90%); herbicidal effect, I (Avena fatua) [8, 17]: 4 (Herbicidal ratio of 70% or more and less than 90%); herbicidal effect, O (Chenopodium album) [9, 17]: 5 (Herbicidal ratio of 90% or more (almost completely withered)); herbicidal effect, F (Digitaria ciliaris) [10, 17]: 5 (Herbicidal ratio of 90% or more (almost completely withered)); herbicidal effect, H (Echinochloa crus-galli var. crus-galli) [11, 17]: 5 (Herbicidal ratio of 90% or more (almost completely withered)); herbicidal effect, K (Lolium multiflorum Lam.) [12, 17]: 3 (Herbicidal ratio of 40% or more and less than 70%); herbicidal effect, G (Setaria viridis) [13, 17]: 5 (Herbicidal ratio of 90% or more (almost completely withered)); herbicidal effect, P (Stellaria media) [14, 17]: 5 (Herbicidal ratio of 90% or more (almost completely withered)); herbicidal effect, R (Veronica persica) [15, 17]: 4 (Herbicidal ratio of 70% or more and less than 90%)"
